Measured values as given in US20090143417A1, “METHODS OF TREATING PAIN” (The University of Queensland, priority 2004, published 2009).

System: naïve rats

In the case of `CN1CC[C@]23c4c5ccc(O)c4O[C@H]2[C@@H](O)C=C[C@H]3[C@H]1C5` [morphine], the “percent of the maximal pain relief effect” value (morphine ED20 dose 2.8 μmol/kg s.c. alone (FIG. 1)) is reported as 20%, the “pain relief from a noxious thermal stimulus using the tail flick test” value (morphine single bolus 10 μmol/kg s.c., at one hour, naïve rats (FIG. 1)) is reported as “near maximal pain relief” and the “ED20 of morphine (antinociception, tail flick)” value (s.c., naïve rats) is reported as about 2.8 µmol/kg. The “peak levels of antinociception, % of the maximum possible effect” value (single s.c. bolus administered alone: 2 at 0.04 nmol/kg, morphine at 2.8 μmol/kg) was 21 % NPE.
